Patent US8633182B2, “Indanyloxyphenylcyclopropanecarboxylic acids” (Boehringer Ingelheim International GmbH, priority 2012, dated 2014)

Target: human GPR40 receptor (Homo sapiens, UniProt O14842)
Assay: IP1 accumulation measurements using the IPOne assay system in 1321N1 cells stably expressing human GPR40 receptor
Assay type: cell-based
Conditions: IP1 accumulation (HTRF), 1321N1 cells stably expressing human GPR40, 1 hour stimulation at 37° C.
Experimental: IP1 accumulation measurements using the IPOne assay system—1321N1 cells stably expressing human GPR40 receptor (Euroscreen, Belgium) are seeded 24 h before the assay in black clear-bottom collagen-coated or white 384-well plates in culture medium containing 10% FCS, 1% Na-Pyruvate and 400 μg/mL G418. IP1 is assayed according to the Manufacturer's description (Cisbio Bioassays, France). In brief, the assay is started by substitution of the culture medium by stimulation buffer (Hepes 10 mM, CaCl2 1 mM, MgCl2 0.5 mM, KCl 4.2 mM, NaCl 146 mM and glucose 5.5 mM, pH 7.4) without LiCl or with […]. Cells are stimulated for 1 hour at 37° C., 5 or 10% CO2 by addition of the compounds that are diluted in stimulation buffer containing LiCl yielding a final LiCl concentration of 50 mM. Assays are stopped by adding HTRF-conjugates (IP1-d2 and Anti-IP1 cryptate Tb) and lysis buffer, provided by the manufacturer. After an incubation time of 1 hour at room temperature plates are measured using an EnVision™, Perkin Elmer. The obtained fluorescence ratios at […] are then used to calculate the pEC50 values using GraphPad Prism 5 (Graphpad Software Inc, USA) or Assay Explorer 3.3 Software (Accelrys, Inc.) by interpolation using an IP1 reference curve and subsequent sigmoidal curve fitting allowing for a variable hill slope.

Sequence of human GPR40 receptor (O14842 whole entry): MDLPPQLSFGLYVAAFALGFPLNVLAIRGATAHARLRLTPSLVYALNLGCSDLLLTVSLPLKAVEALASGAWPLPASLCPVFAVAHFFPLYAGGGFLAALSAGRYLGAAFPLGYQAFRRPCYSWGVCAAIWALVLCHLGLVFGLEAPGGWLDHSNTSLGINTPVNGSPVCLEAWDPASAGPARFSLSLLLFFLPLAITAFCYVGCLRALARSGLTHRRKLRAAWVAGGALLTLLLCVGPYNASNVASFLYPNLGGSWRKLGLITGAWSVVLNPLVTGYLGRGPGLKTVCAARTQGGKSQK

| Structure (SMILES) | EC50 [µM] |
| --- | --- |
| Cc1nc(-c2ccc(-c3c(C(F)(F)F)ccc4c3CC[C@H]4Oc3ccc([C@H]4C[C@@H]4C(=O)O)cc3)cc2)no1 [Example 64, (1S,2S)-2-(4-{(R)-4-[4-(5-Methyl-[1,2,4}oxadiazol-3-yl)-phenyl]-5-trifluoromethyl-indan-1-yloxy}-phenyl)-cyclopropanecarboxylic acid] | 0.003 |
| Cn1ccc2cccc(-c3ccc(F)c4c3CC[C@H]4Oc3ccc([C@H]4C[C@@H]4C(=O)O)cc3)c21 [Example 60] | 0.003 |
| O=C(O)C1CC1c1ccc(O[C@@H]2CCc3c2cccc3C(F)(F)F)cc1 (stereo in doubt) [Example 2, 2-[4-((R)-4-Trifluoromethyl-indan-1-yloxy)-phenyl]-trans-cyclopropanecarboxylic acid] | 0.015 |
| O=C(O)[C@H]1C[C@@H]1c1ccc(O[C@@H]2CCc3c(-c4cncc5ccccc45)ccc(F)c32)cc1 [Example 46, (1S,2S)-2-(4-((1R)-7-fluoro-4-(isoquinolin-4-yl)-2,3-dihydro-1H-inden-1-yloxy)phenyl)cyclo-propanecarboxylic acid] | 0.006 |
| O=C(O)[C@H]1C[C@@H]1c1ccc(O[C@@H]2CCc3c2cccc3C(F)(F)F)cc1 [Example 10] | 0.013 |
| Cc1cc(C(=O)NCC(C)(C)O)cc(C)c1-c1ccc(F)c2c1CC[C@H]2Oc1ccc([C@H]2C[C@@H]2C(=O)O)cc1 [Example 15, (1S,2S)-2-(4-{(R)-7-Fluoro-4-[4-(2-hydroxy-2-methyl-propylcarbamoyl)-2,6-dimethyl-phenyl]-indan-1-yloxy}-phenyl)-cyclopropanecarboxylic acid] | 0.012 |
| Cc1cc(OCCCCS(C)(=O)=O)cc(C)c1-c1ccc(F)c2c1CC[C@H]2Oc1ccc([C@H]2C[C@@H]2C(=O)O)cc1 [Example 31, (1S,2S)-2-(4-{(R)-7-Fluoro-4-[4-(4-methanesulfonyl-butoxy)-2,6-dimethyl-phenyl]-indan-1-yloxy}-phenyl)-cyclopropanecarboxylic acid] | 0.006 |
| N#Cc1sccc1-c1ccc(F)c2c1CC[C@H]2Oc1ccc([C@H]2C[C@@H]2C(=O)O)cc1 [Example 47] | 0.191 |
| Cc1cc(-c2nnn(C)n2)cc(C)c1-c1ccc(F)c2c1CC[C@H]2Oc1ccc([C@H]2C[C@@H]2C(=O)O)cc1 [Example 45] | 0.002 |
| CNC(=O)c1cc(C)c(-c2ccc(F)c3c2CC[C@H]3Oc2ccc([C@H]3C[C@@H]3C(=O)O)cc2)c(C)c1 [Example 19, (1S,2S)-2-{4-[(R)-4-(2,6-Dimethyl-4-methylcarbamoyl-phenyl)-7-fluoro-indan-1-yloxy]-phenyl}-cyclopropane-carboxylic acid] | 0.013 |
| Cc1cc(O[C@@H]2CCOC2)cc(C)c1-c1ccc(F)c2c1CC[C@H]2Oc1ccc([C@H]2C[C@@H]2C(=O)O)cc1 [Example 25] | 0.013 |
| O=C(O)[C@H]1C[C@@H]1c1ccc(O[C@@H]2CCc3c(-c4cccc5cnccc45)ccc(F)c32)cc1 [Example 49, (1S,2S)-2-(4-((1R)-7-fluoro-4-(isoquinolin-5-yl)-2,3-dihydro-1H-inden-1-yloxy)phenyl)cyclo-propanecarboxylic acid] | 0.005 |
| O=C(O)[C@H]1C[C@@H]1c1ccc(O[C@@H]2CCc3c(-c4ccnc5ccccc45)ccc(F)c32)cc1 [Example 50] | 0.011 |
| COc1cccnc1-c1ccc(F)c2c1CC[C@H]2Oc1ccc([C@H]2C[C@@H]2C(=O)O)cc1 [Example 51] | 0.569 |
| Cc1cc(OCCCS(C)(=O)=O)cc(C)c1-c1ccc(F)c2c1CC[C@H]2Oc1ccc(C2CC2C(=O)O)cc1 (stereo partly shown) [Example 13] | 0.013 |
| Cc1cc(OCC2CCS(=O)(=O)CC2)cc(C)c1-c1c(C#N)ccc2c1CC[C@H]2Oc1ccc([C@H]2C[C@@H]2C(=O)O)cc1 [Example 35] | 0.028 |
| Cc1ncc(-c2ccc(F)c3c2CC[C@H]3Oc2ccc([C@H]3C[C@@H]3C(=O)O)cc2)n1C [Example 57, (1S,2S)-2-(4-((1R)-4-(1,2-dimethyl-1H-imidazol-5-yl)-7-fluoro-2,3-dihydro-1H-inden-1-yloxy)phenyl)cyclopropanecarb oxylic acid] | 1.4 |
| Cc1cc(OC(C)(C)C(N)=O)cc(C)c1-c1ccc(F)c2c1CC[C@H]2Oc1ccc([C@H]2C[C@@H]2C(=O)O)cc1 [Example 30, (1S,2S)-2-(4-{(R)-4-[4-(1-Carbamoyl-1-methyl-ethoxy)-2,6-dimethyl-phenyl]-7-fluoro-indan-1-yloxy}-phenyl)-cyclopropanecarboxylic acid] | 0.018 |
| Cc1cc(OCC2(S(C)(=O)=O)CC2)cc(C)c1-c1ccc(F)c2c1CC[C@H]2Oc1ccc([C@H]2C[C@@H]2C(=O)O)cc1 [Example 18, (1S,2S)-2-(4-{(R)-7-Fluoro-4-[4-(1-methanesulfonyl-cyclopropylmethoxy)-2,6-dimethyl-phenyl]-indan-1-yloxy}-phenyl)-cyclopropane-carboxylic acid] | 0.005 |

| Structure (SMILES) | EC50 [µM] |
| --- | --- |
| Cn1ncc2cccc(-c3ccc(F)c4c3CC[C@H]4Oc3ccc([C@H]4C[C@@H]4C(=O)O)cc3)c21 [Example 40] | 0.002 |
| Cc1nn(C)cc1-c1ccc(F)c2c1CC[C@H]2Oc1ccc([C@H]2C[C@@H]2C(=O)O)cc1 [Example 56, (1S,2S)-2-(4-((1R)-4-(1,3-dimethyl-1H-pyrazol-4-yl)-7-fluoro-2,3-dihydro-1H-inden-1-yloxy)phenyl)cyclopropanecarb oxylic acid] | 0.224 |
| O=C(O)C1CC1c1ccc(O[C@@H]2CCc3cc(C(F)(F)F)ccc32)cc1 (stereo in doubt) [Example 3, 2-[4-((R)-5-Trifluoromethyl-indan-1-yloxy)-phenyl]-trans-cyclopropanecarboxylic acid] | 0.036 |
| Cc1ccc2c(cnn2C)c1-c1ccc(F)c2c1CC[C@H]2Oc1ccc([C@H]2C[C@@H]2C(=O)O)cc1 [Example 58, (1S,2S)-2-(4-((1R)-4-(1,5-dimethyl-1H-indazol-4-yl)-7-fluoro-2,3-dihydro-1H-inden-1-yloxy)phenyl)cyclopropanecarb oxylic acid] | 0.004 |
| O=C(O)[C@@H]1C[C@H]1c1ccc(O[C@@H]2CCc3c2cccc3C(F)(F)F)cc1 [Example 9] | 0.457 |
| Cc1cc(OCC(C)(C)S(C)(=O)=O)cc(C)c1-c1ccc(F)c2c1CC[C@H]2Oc1ccc([C@H]2C[C@@H]2C(=O)O)cc1 [Example 14, (1S,2S)-2-(4-{(R)-7-Fluoro-4-[4-(2-methanesulfonyl-2-methyl-propoxy)-2,6-dimethyl-phenyl]-indan-1-yloxy}-phenyl)-cyclopropanecarboxylic acid] | 0.008 |
| Cc1cc(O[C@@H]2CCN(S(C)(=O)=O)C2)cc(C)c1-c1ccc(F)c2c1CC[C@H]2Oc1ccc([C@H]2C[C@@H]2C(=O)O)cc1 [Example 23] | 0.013 |
| Cc1cc(OCC2(O)CCS(=O)(=O)CC2)cc(C)c1-c1ccc(F)c2c1CC[C@H]2Oc1ccc([C@H]2C[C@@H]2C(=O)O)cc1 [Example 39] | 0.006 |
| Cc1cccc(C)c1-c1ccc(F)c2c1CC[C@H]2Oc1ccc(C2CC2C(=O)O)cc1 (stereo in doubt) [Example 33, 2-{4-[(R)-4-(2,6-Dimethyl-phenyl)-7-fluoro-indan-1-yloxy]-phenyl}-trans-cyclopropanecarboxylic acid] | 0.002 |
| O=C(O)C1CC1c1ccc(O[C@@H]2CCc3c(OC(F)(F)F)cccc32)cc1 (stereo in doubt) [Example 4, 2-[4-((R)-4-Trifluoromethoxy-indan-1-yloxy)-phenyl]-trans-cyclopropanecarboxylic acid] | 0.018 |
| Cc1cc(OCCC(C)(C)O)cc(C)c1-c1c(C#N)ccc2c1CC[C@H]2Oc1ccc([C@H]2C[C@@H]2C(=O)O)cc1 [Example 34] | 0.008 |
| Cc1cc(OCCN2CCCS2(=O)=O)cc(C)c1-c1ccc(F)c2c1CC[C@H]2Oc1ccc([C@H]2C[C@@H]2C(=O)O)cc1 [Example 22] | 0.012 |
| O=C(O)[C@H]1C[C@@H]1c1ccc(O[C@@H]2CCc3c(-c4cccc5ncccc45)ccc(F)c32)cc1 [Example 48, (1S,2S)-2-(4-((1R)-7-fluoro-4-(quinolin-5-yl)-2,3-dihydro-1H-inden-1-yloxy)phenyl)cyclo-propanecarboxylic acid] | 0.006 |
| O=C(O)[C@H]1C[C@@H]1c1ccc(O[C@@H]2CCc3c(-c4ccncc4C(F)(F)F)ccc(F)c32)cc1 [Example 52, (1S,2S)-2-(4-((1R)-7-fluoro-4-(3-(trifluoromethyl)pyridin-4-yl)-2,3-dihydro-1H-inden-1-yloxy)phenyl)cyclopropanecarb oxylic acid] | 0.038 |
| Cc1cc(-c2nc(C)n(C)n2)cc(C)c1-c1ccc(F)c2c1CC[C@H]2Oc1ccc([C@H]2C[C@@H]2C(=O)O)cc1 [Example 42, (1S,2S)-2-(4-{(R)-4-[4-(1,5-Dimethyl-1H-[1,2,4]triazol-3-yl)-2,6-dimethyl-phenyl]-7-fluoro-indan-1-yloxy}-phenyl)-cyclopropanecarboxylic acid] | 0.001 |
| Cc1cc(O[C@H]2CCN(S(C)(=O)=O)C2)cc(C)c1-c1ccc(F)c2c1CC[C@H]2Oc1ccc([C@H]2C[C@@H]2C(=O)O)cc1 [Example 24] | 0.018 |
| O=C(O)[C@H]1C[C@@H]1c1ccc(O[C@@H]2CCc3c(-c4ccccc4-c4cnco4)ccc(F)c32)cc1 [Example 62] | 0.029 |
| Cc1cc(-c2nnnn2C)cc(C)c1-c1ccc(F)c2c1CC[C@H]2Oc1ccc([C@H]2C[C@@H]2C(=O)O)cc1 [Example 44] | 0.012 |
